Laboratory results as given in PubChem BioAssay AID588610 (The Scripps Research Institute Molecular Screening Center, 2011).

Biological target: Epidermal growth factor receptor (Homo sapiens) (UniProt P00533)
Assay: EGFR protein level change in DLD-1 cells, late-stage follow-up, counter-screen for KLF5 inhibitor project, DLD1 cells, chemiluminescent western blot (AID 588610)
Conditions: 24 h, at 10 µM; for inhibition of EGFR protein level: stronger effect = higher value; for fold change: measured here: EGFR band fold change vs DMSO

| Structure (SMILES) | inhibition of EGFR protein level | fold change |
| --- | --- | --- |
| CN(C(=O)CNC(=O)/C=C/c1cccc(Cl)c1)C1CCS(=O)(=O)CC1 | -478% | 5.13 |
| CN(C(=O)CNC(=O)/C=C/c1cccc(Cl)c1)C1CCS(=O)(=O)C1 (stereo not given) | – | 5.24 |
| CN(C(=O)COC(=O)/C=C/c1cccc([N+](=O)[O-])c1)C1CCS(=O)(=O)C1 (stereo not given) | -314% | 3.54 |
